Experiment [1] has as its target T1, CD73 activity in MDA-MB-231-GFP cells (Homo sapiens, UniProt P21589).
T1 construct: endogenous in cells; host or cells: MDA-MB-231-GFP cells
T1 sequence (P21589 27-549): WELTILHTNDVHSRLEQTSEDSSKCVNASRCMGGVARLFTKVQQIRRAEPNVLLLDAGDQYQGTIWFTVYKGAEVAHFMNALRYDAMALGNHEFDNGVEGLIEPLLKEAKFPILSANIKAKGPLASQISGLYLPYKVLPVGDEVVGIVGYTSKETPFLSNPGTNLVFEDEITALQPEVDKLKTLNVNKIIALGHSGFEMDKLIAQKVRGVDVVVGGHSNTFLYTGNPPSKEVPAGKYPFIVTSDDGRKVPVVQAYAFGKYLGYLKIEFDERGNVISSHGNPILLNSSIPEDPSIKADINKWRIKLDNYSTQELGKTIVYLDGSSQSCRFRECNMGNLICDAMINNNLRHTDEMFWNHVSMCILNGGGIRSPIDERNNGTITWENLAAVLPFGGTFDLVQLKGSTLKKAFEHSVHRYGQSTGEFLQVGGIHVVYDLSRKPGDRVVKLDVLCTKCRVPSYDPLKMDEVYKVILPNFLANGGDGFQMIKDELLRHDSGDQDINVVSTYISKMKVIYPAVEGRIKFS
The experiment can be described thus: MDA-MB-231 Cell Based CD73 Activity Assay (DMEM). The conditions noted are these: 3000 cells per well, DMEM medium with 10% human plasma, overnight compound treatment, AMP 200 uM.

The target of experiment [2] is T2, CD73 (Homo sapiens, UniProt P21589).
T2 construct: purchased R&D system
T2 sequence (P21589 27-549): T1 sequence (P21589 27-549)
It counts as biochemical. Particulars: 1 mM NaH2PO4 in enzyme buffer, final AMP 15 uM, final CD73 0.3 nM.

Experiment [3] concerns the target T1, CD73 activity in MDA-MB-231-GFP cells. Nature of the experiment: MDA-MB-231 Cell Based CD73 Activity Assay. The conditions noted are these: 10000 cells per well, RPMI medium with 10% human plasma, overnight compound treatment, AMP 200 μM. As for the experimental part:
MDA-MB-231 Cell Based CD73 Activity Assay
MDA-MB-231-GFP cells were seeded in 384-well plates (Greiner 781946) at a density of 10000 cells per well in 50 μL of RPMI medium with 10% HP (human plasma). Cells were plated into assay plate with compounds pre-spotted, for an overnight compound treatment. 50 μL of 400 μM AMP (final concentration 200 μM) using a Bio-tek dispenser. Plates were incubated for 100 mins. […] The samples were run using Rapid fire.

Experiment [4] concerns the target T2, CD73. Nature of the experiment: CD73 Biochemical IC50 Assay. The conditions noted are these: final AMP 15 uM, final CD73 0.3 nM, 25 mM Tris pH 7.4, 5 mM MgCl2, no phosphate. As to the method: CD73 Biochemical IC50 Assay
Compound serial dilutions were pre-spotted into Thermo Nunc assay plate. 50 μL CD73 enzyme buffer (CD73 purchased from R&D system=0.6 nM, 25 mM Tris, pH 7.4, 5 mM MgCl2) was added into the assay plate and incubated for 15 mins. […] The samples were run using Rapid fire.

Like-named read-outs stand apart in the source and are kept apart here.

Take `N#Cc1cccc([C@H]2C[C@@H]2c2cc(-c3c[nH]c(=O)[nH]c3=O)nn3ccnc23)c1` [Example 50, 3-((1S,2S)-2-(6-(2,4-dioxo-1,2,3,4-tetrahydropyrimidin-5-yl)imidazo[1,2-b]pyridazin-8-yl)cyclopropyl)benzonitrile]: the EC50 (in general, the concentration needed to bring the measured effect to its halfway point) amounted to 5.84 nM in experiment [1] and 2.45 nM in experiment [3]. Besides, the values for the IC50 against CD73 [2] and against CD73 [4] were 1.37 nM and 10.7 nM, respectively.

(Values after patent publication US12110294B2, “CD73 compounds” (Gilead Sciences, Inc., priority 2020, dated 2024).)
